Experiment [1] has as its system circulating levels of luteinizing hormone (LH). The experiment can be described thus: Castrated male rat model, circulating luteinizing hormone (LH). The experiment is classed as in vivo. The settings on record: single intravenous 10 mg/kg dose, castrated male Sprague-Dawley rats, 1 hour after dosing. An excerpt: Castrated Male Rat Model to Assess the Effect of Compound of Invention on Circulating Levels of Luteinizing Hormone (LH).
In humans and rodents, castration is well-precedented to permit heightened, persistent GnRH signaling and consequent elevation of circulating LH. Thus, a castrated rat model is used to provide a broad index for measurement of LH inhibition as a marker of test compound inhibition of the GnRH signaling pathway.
Castrated adult male Sprague-Dawley (SD) rats (150-175 g) were purchased from Janvier (St Berthevin, France). […] The animals were allowed 2 weeks of postoperative recovery prior to study. Animals were handled on a daily basis. Standard diet and tap water were provided ad libitum. Animal cage litters were changed once a week. On the study day, animals were acclimated to the procedure room for a period of one hour prior to the initiation of the experiment.
Compounds of the invention were formulated as apyrogen water with 90 g/L (2-Hydroxypropyl)-β-CycloDextrin.
After basal sampling (T0) a single dose of compounds of the invention or vehicle was administrated intravenously to rats. Blood was then collected at 60 min post dosing. Blood samples were obtained via tail vein bleed, drawn into EDTA-containing tubes and centrifuged immediately. […] Serum LH levels were determined using radioimmunoassay kit from RIAZEN—Rat LH, Zentech (Liège, Belgium). […]

The subject of experiment [2] is circulating levels of testosterone. The experiment can be described thus: Gonad-intact adult male rat, circulating testosterone. The settings on record: single intravenous 50 mg/kg dose, gonad-intact male Sprague-Dawley rats, over the 210 minute test period (AUC). The experiment is classed as in vivo.
Experiment [3] deals with human NK1 receptor (Homo sapiens (Human), UniProt P25103). Briefly: Human NK1 [3H] substance P binding assay (selectivity). The conditions noted are these: read-out: NK1 Ki; CHO membranes, 2 nM [3H] substance P.
human NK1 receptor, sequence (P25103 whole entry): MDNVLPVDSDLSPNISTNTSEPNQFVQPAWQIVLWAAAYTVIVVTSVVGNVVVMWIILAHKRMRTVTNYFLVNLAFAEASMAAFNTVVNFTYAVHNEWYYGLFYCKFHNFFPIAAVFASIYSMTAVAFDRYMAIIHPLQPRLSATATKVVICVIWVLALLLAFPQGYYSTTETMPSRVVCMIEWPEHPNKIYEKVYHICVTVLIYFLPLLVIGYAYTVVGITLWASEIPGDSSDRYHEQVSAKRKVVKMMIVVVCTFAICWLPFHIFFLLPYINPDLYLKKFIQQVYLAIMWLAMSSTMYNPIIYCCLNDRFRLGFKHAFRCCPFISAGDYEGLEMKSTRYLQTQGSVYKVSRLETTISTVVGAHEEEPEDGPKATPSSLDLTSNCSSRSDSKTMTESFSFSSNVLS
In experiment [4] the target is human NK2 receptor (Homo sapiens (Human), UniProt P21452). The experiment can be described thus: Human NK2 [125I]-Neurokinin A binding assay (selectivity). The conditions noted are these: read-out: NK2 Ki; CHO membranes, 0.1 nM [125I]-Neurokinin A.
human NK2 receptor, sequence (P21452 whole entry): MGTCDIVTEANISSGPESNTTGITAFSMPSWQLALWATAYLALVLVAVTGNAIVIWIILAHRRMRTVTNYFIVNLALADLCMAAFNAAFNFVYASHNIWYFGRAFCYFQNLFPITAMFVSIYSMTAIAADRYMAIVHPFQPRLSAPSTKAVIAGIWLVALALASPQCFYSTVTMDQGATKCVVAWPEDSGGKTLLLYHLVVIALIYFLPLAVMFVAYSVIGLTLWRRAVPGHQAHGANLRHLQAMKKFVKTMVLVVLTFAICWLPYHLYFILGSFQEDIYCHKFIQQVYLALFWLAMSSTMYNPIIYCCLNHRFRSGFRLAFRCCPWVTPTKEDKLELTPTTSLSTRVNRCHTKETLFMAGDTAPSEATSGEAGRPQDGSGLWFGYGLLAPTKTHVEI
The target of experiment [5] is hERG channel (Homo sapiens (Human), UniProt Q12809). The experiment can be described thus: hERG inhibition assay (manual patch-clamp, HEK 293 cells). In general terms: The hERG channel carries a current that helps repolarise heart muscle cells.
hERG channel, sequence (Q12809 whole entry): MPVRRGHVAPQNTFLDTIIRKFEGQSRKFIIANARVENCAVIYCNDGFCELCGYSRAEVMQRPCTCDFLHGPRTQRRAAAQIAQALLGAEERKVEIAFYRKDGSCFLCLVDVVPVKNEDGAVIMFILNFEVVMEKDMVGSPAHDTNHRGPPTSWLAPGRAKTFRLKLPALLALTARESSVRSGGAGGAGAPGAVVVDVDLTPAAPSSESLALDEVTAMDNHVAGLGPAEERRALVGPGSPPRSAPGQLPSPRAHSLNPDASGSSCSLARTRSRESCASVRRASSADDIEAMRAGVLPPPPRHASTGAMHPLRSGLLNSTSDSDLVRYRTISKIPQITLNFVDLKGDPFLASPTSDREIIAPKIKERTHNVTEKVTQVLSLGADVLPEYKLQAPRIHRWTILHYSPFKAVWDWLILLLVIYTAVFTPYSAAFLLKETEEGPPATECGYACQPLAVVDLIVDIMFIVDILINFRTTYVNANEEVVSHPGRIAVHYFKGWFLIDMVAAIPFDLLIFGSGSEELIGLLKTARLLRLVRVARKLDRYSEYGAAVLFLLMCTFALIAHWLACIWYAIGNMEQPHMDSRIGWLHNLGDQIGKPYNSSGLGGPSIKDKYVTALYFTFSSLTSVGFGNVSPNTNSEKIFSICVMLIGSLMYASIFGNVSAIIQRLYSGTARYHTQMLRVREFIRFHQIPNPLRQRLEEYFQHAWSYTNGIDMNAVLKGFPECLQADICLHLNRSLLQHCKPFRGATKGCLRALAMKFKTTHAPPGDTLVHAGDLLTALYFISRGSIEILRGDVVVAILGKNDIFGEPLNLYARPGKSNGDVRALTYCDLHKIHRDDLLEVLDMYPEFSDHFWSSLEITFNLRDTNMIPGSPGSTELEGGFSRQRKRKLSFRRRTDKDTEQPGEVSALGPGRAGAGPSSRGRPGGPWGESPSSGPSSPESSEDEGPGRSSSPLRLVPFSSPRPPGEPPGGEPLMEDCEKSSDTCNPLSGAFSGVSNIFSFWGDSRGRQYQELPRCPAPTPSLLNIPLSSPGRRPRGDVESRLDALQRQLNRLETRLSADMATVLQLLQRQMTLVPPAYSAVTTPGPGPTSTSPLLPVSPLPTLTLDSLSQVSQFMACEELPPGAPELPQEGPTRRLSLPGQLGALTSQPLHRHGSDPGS
Experiment [6] has as its target T1, human NK-3 receptor (Homo sapiens (Human), UniProt P29371). Briefly: Aequorin functional assay with human NK-3 receptor (antagonist testing vs NKA). The experiment is classed as cell-based. The settings on record: inhibition of NKA (3 nM, EC80) response, CHO cells expressing human NK3 receptor and apoaequorin.
Experiment [7] has as its target T1, human NK-3 receptor. The experiment can be described thus: 3H-SB222200 binding competition assay with human NK-3 receptor.
Method: ^3H-SB222200 Binding Competition Assay with Human NK-3 Receptor
The membranes were incubated with 5 nM ^3H-SB222200(ARC) in a HEPES 25 mM/NaCl 0.1M/CaCl2 1 mM/MgCl2 5 Mm/BSA 0.5%/Saponin 10 μg/ml buffer at pH 7.4 and various concentrations of compounds of the invention. The amount of ^3H-SB222200 bound to the receptor was determined after filtration by the quantification of membrane associated radioactivity using the TopCount-NXT reader (Packard).
Setting [8] is: Table 6, membranes of CHO cells expressing human NK3 receptor, 5 nM 3H-SB222200, read-out: Ki.
Where [9] appears, read: Table 7, human NK-3 receptor, read-out: NK3 Ki.

Read-outs that look alike come from different tables or passages of the source.

T1 sequence (P29371 whole entry): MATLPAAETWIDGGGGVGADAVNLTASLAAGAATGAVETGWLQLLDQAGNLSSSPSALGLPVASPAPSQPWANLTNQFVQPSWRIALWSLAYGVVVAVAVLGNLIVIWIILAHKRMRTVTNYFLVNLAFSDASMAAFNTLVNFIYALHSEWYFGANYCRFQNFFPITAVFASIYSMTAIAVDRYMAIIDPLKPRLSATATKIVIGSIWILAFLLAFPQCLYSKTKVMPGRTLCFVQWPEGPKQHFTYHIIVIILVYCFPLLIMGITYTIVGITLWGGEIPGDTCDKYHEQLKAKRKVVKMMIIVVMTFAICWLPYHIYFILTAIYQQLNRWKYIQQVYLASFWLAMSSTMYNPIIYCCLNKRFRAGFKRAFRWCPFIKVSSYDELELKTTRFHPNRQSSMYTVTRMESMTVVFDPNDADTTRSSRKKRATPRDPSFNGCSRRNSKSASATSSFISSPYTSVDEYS

By Ki is commonly meant the dissociation constant of the complex between target and ligand, obtained from inhibition or displacement. By IC50 is commonly meant the concentration at which inhibition is half-maximal. Read a low IC50 as inhibition by little substance. Turning to `Cc1nc(-c2nnc3n2CCN(C(=O)c2ccc(-c4cccs4)cc2)[C@@H]3C)cs1` [Compound 1, (R)-(8-methyl-3-(2-methylthiazol-4-yl)-5,6-dihydro-[1,2,4]triazolo[4,3-a]pyrazin-7(8H)-yl) (4-(thiophen-2-yl)phenyl)methanone], the “circulating LH levels” value in experiment [1] is recorded as “significantly suppressed circulating LH levels”. In experiment [2], the plasma testosterone levels result is on record as “significantly suppressed plasma testosterone levels”. Moreover, the figures for the inhibition constant Ki in experiment [3] and in experiment [4] were 12700 nM and 14000 nM, respectively. In experiment [5], this molecule showed a 50% inhibitory concentration (IC50) of over 30000 nM.

For the molecule `Cc1nc(-c2nnc3n2CCN(C(=O)c2ccc(-c4cccs4)cc2)C3)cs1` [Compound 3, (3-(2-methylthiazol-4-yl)-5,6-dihydro-[1,2,4]triazolo[4,3-a]pyrazin-7(8H)-yl)(4-(thiophen-2-yl)phenyl)methanone], the IC50 in experiment [6] was 83 nM; in experiment [5], 26000 nM. In addition, the Ki in experiment [7] (setting [8]) is 83 nM; in experiment [7] (setting [9]) it was 83 nM; in experiment [3], over 10000 nM; in experiment [4], over 10000 nM.

On to `Cc1nc(-c2nnc3n2CCN(C(=O)c2ccc(-c4cccs4)cc2)[C@@H]3C)co1` [Compound 11, (R)-(8-methyl-3-(2-methyloxazol-4-yl)-5,6-dihydro-[1,2,4]triazolo[4,3-a]pyrazin-7(8H)-yl)(4-(thiophen-2-yl)phenyl)methanone], for which the IC50 was 34 nM in experiment [6] and over 30000 nM in experiment [5]. Also, the Ki in experiment [7] (setting [8]) is 44 nM; in experiment [7] (setting [9]), 44 nM; in experiment [3] it was over 10000 nM; in experiment [4] it was over 10000 nM.

Take `Cc1csc(-c2nnc3n2CCN(C(=O)c2ccc(-c4cccs4)cc2)[C@@H]3C)n1` [Compound 19, (R)-(8-methyl-3-(4-methylthiazol-2-yl)-5,6-dihydro-[1,2,4]triazolo[4,3-a]pyrazin-7(8H)-yl)(4-(thiophen-2-yl)phenyl)methanone]: the IC50 in experiment [6] turned out to be 8 nM. Moreover, the Ki in experiment [7] (setting [8]) is 6 nM. In addition, in experiment [1], the “circulating LH levels” value is recorded as “significantly suppressed circulating LH levels”.

As to `Cc1nc(-c2nnc3n2CCN(C(=O)c2ccc(-c4cccs4)cc2)[C@@H]3C)sc1C` [Compound 22, (R)-(3-(4,5-dimethylthiazol-2-yl)-8-methyl-5,6-dihydro-[1,2,4]triazolo[4,3-a]pyrazin-7(8H)-yl)(4-(thiophen-2-yl)phenyl)methanone], the IC50 came to 21 nM in experiment [6] and 12000 nM in experiment [5]. In addition, the Ki in experiment [7] (setting [8]) was 21 nM.

On to `C[C@@H]1c2nnc(-c3cccc(O)n3)n2CCN1C(=O)c1ccc(-c2cccs2)cc1` [Compound 31, (R)-(3-(6-hydroxypyridin-2-yl)-8-methyl-5,6-dihydro-[1,2,4]triazolo[4,3-a]pyrazin-7(8H)-yl)(4-(thiophen-2-yl)phenyl)methanone], for which the IC50 stood at 18 nM in experiment [6] and 20000 nM in experiment [5]. Moreover, the Ki is 22 nM in experiment [7] (setting [8]), 22 nM in experiment [7] (setting [9]), over 10000 nM in experiment [3] and over 10000 nM in experiment [4].

Values taken from patent US9475814B2, “Chiral N-acyl-5,6,7(8-substituted)-tetrahydro-[1,2,4]triazolo[4,3-a]pyrazines as selective NK-3 receptor antagonists, pharmaceutical composition, methods for use in NK-3 receptor mediated disorders and chiral synthesis thereof” (Euroscreen S.A., priority 2011, dated 2016).
